Source: EPA's ToxRefDB 2

Legend:
[1] = system: dog; conditions: Chronic toxicity; beagle; Oral; Feed; dose end: 52 week; group: systemic; systemic / organ weight / liver / absolute + systemic / organ weight / liver / relative to body weight
[2] = system: mouse; conditions: Subchronic oral toxicity in rodents, cd1, Feed, dose end: 13 week, group: systemic, systemic / pathology microscopic / liver / cytomegaly + systemic / pathology microscopic / spleen / hematopoietic cell proliferation + …
[3] = system: rabbit; conditions: Prenatal developmental toxicity study, new zealand white, Oral, Gavage/Intubation, dose end: 18 GD
[4] = system: mouse; conditions: Carcinogenicity; other; Oral; Feed; dose end: 18 month; group: systemic; systemic / pathology microscopic / liver / hypertrophy + systemic / pathology microscopic / liver / necrosis
[5] = system: mouse; conditions: Carcinogenicity, cd1, Oral, Feed, dose end: 20 month, group: systemic
[6] = system: rat; conditions: Subchronic oral toxicity in rodents, fischer, Feed, dose end: 84 day, group: systemic, systemic / clinical chemistry / thyroxine (t4) / thyroxine (t4)
[7] = system: dog; conditions: Chronic toxicity, beagle, Oral, Feed, dose end: 52 week, group: systemic
[8] = system: rat; conditions: Combined chronic toxicity/carcinogenicity; fischer; Oral; Feed; dose end: 104 week; group: systemic; systemic / hematology / methemoglobin / methemoglobin + systemic / pathology microscopic / kidney / mineralization + systemic / pathology …
[9] = system: rat; conditions: Multigenerational reproductive toxicity study, sprague dawley, Oral, Feed, dose end: 2 generation
[10] = system: dog; conditions: Subchronic oral toxicity in nonrodent, beagle, Feed, dose end: 13 week, group: systemic, systemic / clinical chemistry / alanine aminotransferase (alt/sgpt) / alanine aminotransferase (alt/sgpt) + systemic / clinical chemistry / …
[11] = system: rat; conditions: Prenatal developmental toxicity study, sprague dawley, Oral, Gavage/Intubation, dose end: 15 GD
[12] = group: developmental, developmental / developmental malformation / bone / full supernumerary + developmental / developmental malformation / bone / supernumerary
[13] = group: developmental, developmental / developmental malformation / bone / full supernumerary + developmental / developmental malformation / bone / supernumerary…
[14] = group: maternal, systemic / pathology microscopic / liver / hypertrophy + systemic / pathology microscopic / liver / vacuolization
[15] = group: maternal, systemic / pathology microscopic / liver / hypertrophy + systemic / pathology microscopic / liver / vacuolization + systemic / in life …
[16] = systemic / pathology microscopic / eye / cataract
[17] = systemic / pathology microscopic / eye / cataract + systemic / hematology / erythrocyte (rbc) count differential / erythrocyte (rbc) + …
[18] = total + systemic / clinical chemistry / phosphorus / phosphorus + systemic…
[19] = systemic / in life observation / body weight / body weight gain
[20] = group: offspring, developmental / offspring survival late / viability index / viability index + reproductive / offspring survival early / offspring survival …
[21] = group: parental, systemic / pathology microscopic / liver / congestion
[22] = group: developmental, developmental / developmental malformation / bone / delayed ossification + developmental / developmental malformation / bone / full …
[23] = group: maternal, systemic / in life observation / body weight / body weight gain + systemic / in life observation / body weight / body weight + systemic / in…

`CC(C)N(C(=O)COc1nnc(C(F)(F)F)s1)c1ccc(F)cc1` [Flufenacet] was tested, and the LEL [1] was 17.3 mg/kg/day, the LOAEL [1] was 17.3 mg/kg/day and the NEL [1] was 3.15 mg/kg/day. For the same compound, the NOAEL [1] was 3.15 mg/kg/day, the LEL [2] was 64.2 mg/kg/day and the LOAEL [2] was 64.2 mg/kg/day. It also gave an NEL [2] of 18.2 mg/kg/day, an NOAEL [2] of 18.2 mg/kg/day and an LEL [3, 12] of 125 mg/kg/day. It also gave an LOAEL [3, 12] of 125 mg/kg/day, an NEL [3, 13] of 25 mg/kg/day and an NOAEL [3, 13] of 25 mg/kg/day. It also gave an LEL [3, 14] of 25 mg/kg/day, an LOAEL [3, 14] of 25 mg/kg/day and an NEL [3, 15] of 5 mg/kg/day. For the same compound, the NOAEL [3, 15] was 5 mg/kg/day, the LEL [4] was 2.1 mg/kg/day and the LOAEL [4] was 2.1 mg/kg/day. The NEL [4] was < 2.1 mg/kg/day, the NOAEL [4] was < 2.1 mg/kg/day and the LOAEL [5, 16] was 7.4 mg/kg/day. The NOAEL [5, 16] was < 7.4 mg/kg/day, the LEL [5, 17] was 7.4 mg/kg/day and the NEL [5, 17] was < 7.4 mg/kg/day. For the same compound, the LOAEL ([6]; total) was 6 mg/kg/day, the NOAEL ([6]; total) was < 6 mg/kg/day and the LEL [6, 18] was 6 mg/kg/day. The NEL [6, 18] was < 6 mg/kg/day, the LOAEL ([7]; systemic / clinical chemistry / alanine aminotransferase (alt/sgpt) / alanine aminotransferase (alt/sgpt) + systemic / clinical chemistry / …) was 26.8 mg/kg/day and the LEL [7, 19] was 1.14 mg/kg/day. The NEL [7, 19] was < 1.14 mg/kg/day, the NOAEL ([7]; systemic / in life observation / body weight / body weight gain + systemic / clinical chemistry / alanine aminotransferase (alt/sgpt) / …) was 1.14 mg/kg/day and the LEL [8] was 1.2 mg/kg/day. The LOAEL [8] was 1.2 mg/kg/day, the NEL [8] was < 1.2 mg/kg/day and the NOAEL [8] was < 1.2 mg/kg/day. The LEL [9, 20] was 7.3 mg/kg/day, the LOAEL [9, 20] was 7.3 mg/kg/day and the NEL [9, 20] was 1.4 mg/kg/day. The NOAEL [9, 20] was 1.4 mg/kg/day, the LEL [9, 21] was 1.4 mg/kg/day and the NEL [9, 21] was < 1.4 mg/kg/day. It also gave an LOAEL ([9]; group: parental, systemic / pathology microscopic / liver / hypertrophy) of 7.3 mg/kg/day, an NOAEL ([9]; group: parental, systemic / pathology microscopic / liver / hypertrophy + systemic / pathology microscopic / liver / congestion) of 1.4 mg/kg/day and an LEL [10] of 1.67 mg/kg/day. The LOAEL [10] was 6.9 mg/kg/day, the NEL [10] was < 1.67 mg/kg/day and the NOAEL [10] was 1.7 mg/kg/day. It also gave an LEL [11, 22] of 125 mg/kg/day, an LOAEL [11, 22] of 125 mg/kg/day and an NEL [11, 22] of 25 mg/kg/day. The NOAEL [11, 22] was 25 mg/kg/day, the LOAEL ([11]; group: maternal, systemic / in life observation / body weight / body weight gain) was 125 mg/kg/day and the LEL [11, 23] was 125 mg/kg/day. For the same compound, the NEL [11, 23] was 25 mg/kg/day and the NOAEL [11, 23] was 25 mg/kg/day.
